In brackets after ≈: the same amount, converted by molar mass. Read-outs that look alike come from different tables or passages of the source. Numbered stars: 1 amine (or outer) side, 2 acyl side, 3 side chain; on linkers, the order of the positions; unused ones are H or OH. Square brackets hold non-standard residues; d marks the D form. Peptide text beside a SMILES is read from it. * marks the point of attachment. X3 = Nc1c(S(=O)(=O)O)cc2c3c(cc(S(=O)(=O)O)cc13)C(=O)N(CCCCCN*)C2=O; Dabcyl = CN(C)c1ccc(N=Nc2ccc(C(=O)*)cc2)cc1; X2 = CN(C)c1ccc(N=Nc2ccc(S(=O)(=O)*)cc2)cc1; X1 = CN(C)c1ccc(/N=N/c2ccc(C(=O)*)cc2)cc1; EDANS = O=S(=O)(O)c1cccc2c(NCCN*)cccc12; Sta = CC(C)C[C@H](N)[C@@H](O)CC(=O)O; NMeGABA = CN(CCCC(=O)[*:2])[*:1]; Isovaleryl = CC(C)CC(=O)*; GABA = NCCCC(=O)O
How the values were obtained:
[1] = target: T1, HIV protease (Human immunodeficiency virus type 1 group M subtype B, UniProt P04585); assay: HIV protease activity towards fluorogenic substrates; type: biochemical, human immunodeficiency virus-1 (HIV-1); set-up: The 11 kd protease enzyme, which is encoded by the human immunodeficiency virus-1 (HIV-1)
Experimental: (§1) Rate measurements of the change of the fluorescence intensity over time were also performed for reaction mixtures containing a protease enzyme and a fluorogenic substrate of the present invention.

[2] = pH 4.7, aqueous buffer
[3] = system: AMV protease; type: biochemical, avian myeloblastosis virus (AMV)
Experimental: as §1

[4] = assay buffer used
[5] = target: AMV protease (Avian myeloblastosis virus, UniProt P26315); assay: Fluorogenic assay for inhibition of AMV protease (Substrate II); type: biochemical
Chain of AMV protease (Avian myeloblastosis virus, UniProt P26315) (P26315 whole entry): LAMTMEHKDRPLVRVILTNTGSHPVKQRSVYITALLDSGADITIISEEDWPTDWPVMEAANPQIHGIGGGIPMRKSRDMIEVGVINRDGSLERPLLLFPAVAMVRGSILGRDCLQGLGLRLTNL
Experimental: as §1

[6] = target: T1, HIV protease; assay: Fluorogenic assay for inhibition of HIV protease (Substrate I); conditions: Cornish-Bowden plot, parallel lines; pH 4.7, 30°C
Experimental: Typically, the assay reaction is performed using buffered solutions, and the reaction is allowed to proceed to virtual completion. The hydrolysis of the fluorogenic substrate by the protease enzyme is monitored by steady state fluorescence using a spectrofluorometer. Fluorescence intensity measurements can be acquired continuously and recorded directly by an interfaced microcomputer. The rate of fluorescent substrate hydrolysis can then be computed from a linear regression analysis. In this assay, the rate of hydrolysis of the fluorogenic substrate is directly proportional to the concentration of the protease. By omitting the protease inhibitor compound from the reaction mixture, the rate of change in fluorescent intensity due to the enzyme's activity can be determined. […]
The assay reaction was carried out in a fluorescence microcell (3 mm), for which a total sample volume of 120 microliters is adequate in most fluorometers. […] Prewarmed substrate solution (20 µL at 30°C) was then added to the microcell, and the fluorescence intensity of the reaction mixture was recorded as a function of time. […] The rate of change of the fluorescence intensity over the subsequent five to eight minutes was determined by linear regression. […] Therefore, the per cent inhibition was calculated as 100 x (1 - (rate in presence of inhibitor)/(rate in absence of inhibitor)).

[7] = physchem; conditions: NaOAc buffer, pH 4.7, aqueous buffer
[8] = target: T1, HIV protease; assay: Fluorescence enhancement of substrate on hydrolysis by HIV protease; type: biochemical, human immunodeficiency virus-1 (HIV-1); set-up: The 11 kd protease enzyme, which is encoded by the human immunodeficiency virus-1 (HIV-1)
Experimental: Analytical HPLC and the isolation of substrate fragments were performed in accordance with methods well known in the art on a Hewlett Packard 1090M system equipped with diode array absorbance and fluorescence detectors, using either a Brownlee 250 x 4.6 mm C8 silica column at pH values below 5, or a Hamilton 50 x 4.1 mm PRP3 polymer column over a pH range of 2-8. A water to acetonitrile gradient was used; either 0.1% trifluoroacetic acid (pH of about 2), 10 mM sodium acetate (pH 4.9), or 10 mM Tris-HCl (pH 8) was included to vary the pH.
The detection system permitted the simultaneous acquisition of the chromatograms for fluorescence and several absorbance wavelengths, as well as the absorption spectra for all peaks. The fluorescence (excitation at 340 nm, emission at 490 nm) and 475 nm absorbance signals, which arise respectively from the EDANS and DABCYL groups, were used to monitor and quantitate the fragments produced by proteolysis of the substrate.
The molar fluorescence enhancement of Substrate I was also estimated by HPLC analysis of HIV protease/Substrate reaction mixtures at times before the hydrolysis reaction was complete. […]

CC[C@H](C)[C@H](NC(=O)CCCNC(=O)c1ccc(/N=N/c2ccc(N(C)C)cc2)cc1)C(=O)N[C@@H](CCCNC(=N)N)C(=O)N[C@@H](CCC(N)=O)C(=O)N[C@@H](C)C(=O)N[C@@H](CC(N)=O)C(=O)N[C@@H](Cc1ccccc1)C(=O)N[C@@H](CC(C)C)C(=O)NCC(=O)N[C@@H](CC(C)C)C(=O)NCCNc1cccc2c(S(=O)(=O)O)cccc12 [Substrate V] ({X1-GABA}-IRQANFLGL-{EDANS})
cleavage by HIV protease (in words) [1]: not as efficiently as was Substrate I

CC[C@H](C)[C@H](NC(=O)[C@@H]1CCCN1C(=O)[C@H](Cc1ccc(O)cc1)NC(=O)[C@H](CC(N)=O)NC(=O)[C@H](CCC(N)=O)NC(=O)[C@H](CO)NC(=O)CCCNC(=O)c1ccc(N=Nc2ccc(N(C)C)cc2)cc1)C(=O)N[C@H](C(=O)N[C@@H](CCC(N)=O)C(=O)NCCCCCN1C(=O)c2cc(S(=O)(=O)O)cc3c(N)c(S(=O)(=O)O)cc(c23)C1=O)C(C)C ({Dabcyl-GABA}-SQNYPIVQ-X3)
solubility [2]: ≥ 350 µM

CC(C)[C@H](NC(=O)[C@H](CO)NC(=O)CCCNC(=O)c1ccc(/N=N/c2ccc(N(C)C)cc2)cc1)C(=O)N[C@H](C(=O)N[C@@H](Cc1ccc(O)cc1)C(=O)N1CCC[C@H]1C(=O)N[C@H](C(=O)N[C@H](C(=O)N[C@@H](CCC(N)=O)C(=O)NCCNc1cccc2c(S(=O)(=O)O)cccc12)C(C)C)C(C)C)C(C)C [Substrate II] ({X1-GABA}-SVVYPVVQ-{EDANS})
AMV protease activity against Substrate II relative to Substrate I [3]: at least 50 fold
cleavage by AMV protease (in words) [3]: efficient substrate

CC[C@H](C)[C@H](NC(=O)[C@@H](NC(=O)[C@H](C)NC(=O)[C@@H](NC(=O)CCCNC(=O)c1ccc(/N=N/c2ccc(N(C)C)cc2)cc1)[C@@H](C)O)[C@@H](C)O)C(=O)N[C@@H](CCSC)C(=O)N[C@@H](CCSC)C(=O)N[C@@H](CCC(N)=O)C(=O)N[C@@H](CCCNC(=N)N)C(=O)NCC(=O)N[C@@H](CCC(=O)O)C(=O)NCCNc1cccc2c(S(=O)(=O)O)cccc12 [Substrate VII] ({X1-GABA}-TATIMMQRGE-{EDANS})
cleavage by HIV protease (in words) [1]: more efficient substrate
maximum velocity for the enzymatic reaction (Vmax) ([1]; HIV protease): 1.8 nM/min
Km ([1]; read-out: Michaelis-Menten kinetics constant (Km); HIV protease): 5.9 µM

CC[C@H](C)[C@H](NC(=O)[C@@H]1CCCN1C(=O)[C@H](Cc1ccccc1)NC(=O)[C@H](CC(N)=O)NC(=O)[C@H](CC(C)C)NC(=O)[C@@H](NC(=O)[C@H](C)NC(=O)CCCNC(=O)c1ccc(/N=N/c2ccc(N(C)C)cc2)cc1)[C@@H](C)O)C(=O)N[C@@H](CO)C(=O)N[C@@H](CCC(N)=O)C(=O)N[C@@H](CCC(=O)O)C(=O)NCCNc1cccc2c(S(=O)(=O)O)cccc12 [Substrate VI] ({X1-GABA}-ATLNFPISQE-{EDANS})
cleavage by HIV protease (in words) [1]: not as efficiently as was Substrate I

CC[C@H](C)[C@H](NC(=O)[C@H](CCC(N)=O)NC(=O)[C@@H]1CCCN1C(=O)[C@H](Cc1ccccc1)NC(=O)[C@H](CC(N)=O)NC(=O)[C@H](Cc1ccccc1)NC(=O)[C@H](CO)NC(=O)[C@@H](NC(=O)CCCN(C)S(=O)(=O)c1ccc(N=Nc2ccc(N(C)C)cc2)cc1)C(C)C)C(=O)N[C@H](C(=O)N[C@@H](CC(C)C)C(=O)NCCNc1cccc2c(S(=O)(=O)O)cccc12)[C@@H](C)O [Substrate III] (X2-[NMeGABA]VSFNFPQITL-{EDANS})
solubility (in words) [4]: poor solubility

CC(C)CC(=O)N[C@H](C(=O)N[C@H](C(=O)N[C@@H](CC(C)C)[C@@H](O)CC(=O)N[C@@H](C)C(=O)N[C@@H](CC(C)C)[C@@H](O)CC(=O)O)C(C)C)C(C)C [pepstatin] (Isovaleryl-VV[Sta]A[Sta]-OH)
IC50 [5]: ~40 µM
mode of inhibition of the protease [6]: purely competitive

CC[C@H](C)[C@H](NC(=O)[C@H](CCSC)NC(=O)[C@H](Cc1ccc(O)cc1)NC(=O)[C@H](CC(N)=O)NC(=O)[C@H](CCC(N)=O)NC(=O)[C@H](CO)NC(=O)CCCN(C)S(=O)(=O)c1ccc(N=Nc2ccc(N(C)C)cc2)cc1)C(=O)N[C@H](C(=O)N[C@@H](CCC(N)=O)C(=O)NCCNc1cccc2c(S(=O)(=O)O)cccc12)C(C)C [Substrate IV] (X2-[NMeGABA]SQNYMIVQ-{EDANS})
solubility (in words) [4]: poor solubility

CC[C@H](C)[C@H](NC(=O)[C@@H]1CCCN1C(=O)[C@H](Cc1ccc(O)cc1)NC(=O)[C@H](CC(N)=O)NC(=O)[C@H](CCC(N)=O)NC(=O)[C@H](CO)NC(=O)CCCNC(=O)c1ccc(/N=N/c2ccc(N(C)C)cc2)cc1)C(=O)N[C@H](C(=O)N[C@@H](CCC(N)=O)C(=O)NCCNc1cccc2c(S(=O)(=O)O)cccc12)C(C)C [Substrate I] ({X1-GABA}-SQNYPIVQ-{EDANS})
solubility [7]: ~150 µM (≈ 230 µg/mL)
enhancement of the fluorescence quantum yield of the Pro-Ile-Val-Gln-EDANS fragment over the parent substrate ([8]; HPLC analysis, pH 4.9, acetonitrile-water): 33 fold
fluorescence enhancement on cleavage ([8]; under assay conditions): 40 fold
cleavage by HIV protease (in words) [1]: cleaved quite efficiently
maximum velocity for the enzymatic reaction (Vmax) ([1]; HIV protease): 47 nM/min
Km ([1]; HIV protease; read-out: Michaelis-Menten kinetics constant (Km)): 103 µM
rate of cleavage by HIV protease, Substrate I relative to Substrate II ([1]; each substrate 3.4 µM): ten times faster
cleavage by AMV protease (in words) [3]: not by AMV protease
